Test [1] has as its system time spent awake, in SWS and REM sleep. The experiment in a line: Rat polysomnography. To be noted: 5.6 mg/kg s.c., first 4 h. Type of test: in vivo. An excerpt:
Model 4ET telemetry device components (Data Sciences International, St Paul, MN, USA) were bilaterally placed in subcutaneous pockets on the dorsal flank of adult male Sprague-Dawley rats (200–400 grams). Two pairs of leads were implanted superficially to burr holes drilled over the frontal cortex (stainless steel screws, Plastics One, Roanoke, VA at coordinates: A-P = +1.5 mm, M-L = 1.5 mm) and parietal cortex (coordinates: A-P = −3.7 mm, M-L = −2.2 mm), and the cerebellum bilaterally to be used as ground and reference for electroencephalographic (EEG) recordings. A stainless-steel wire (Plastics One, Roanoke, VA) was implanted into the neck muscle to monitor electromyogram (EMG). All recordings were performed inside the home cages of animals using RPC-2 telemetry receivers (Data Sciences International, St. Paul, MN) at a sampling rate of 500 Hz for data acquisition. Baseline data, while on vehicle, were obtained for 24 h prior to compound administration. PF-6142 (1.0 or 5.6 mg/kg, s.c.) was administered acutely following the baseline day.
Raw EEG traces were analyzed using custom scripts in MATLAB (The Mathworks, Natick, MA, version 7.8 (R2009a)) to evaluate spectral changes between treatment groups. Raw EEG data were read into the MATLAB software, segmented to match that of the polysomnography (PSG) data (see below) and fast Fourier transforms (FFTs) were performed. Only data collected on the parietal lead were the subject of statistical analyses. PSG analysis was applied to all EEG/EMG data and utilized an in-house algorithm developed in LabView (National Instruments, Austin TX) as previously described ([Harvey et al., 2013]).
Relative power data in each band aggregated over 2 h-long time bins, while on drug, were normalized to baseline levels in corresponding time bins relative to dosing. For statistical analysis the R software was used. The effects of two within factors, dose and time, on cumulative time spent in three stages, awake, REM, and NREM sleep were assessed using generalized linear mixed model. […]

Test [2] concerns ACh levels in the rat PFC. The test is described as follows: Prefrontal cortex acetylcholine levels via microdialysis, rat. Type of test: in vivo. The source says: Adult male Sprague-Dawley rats (280–360 g) were obtained from Charles-River Laboratories, Raleigh, NC and male C57BL/6J DRD1a WT and D1 DA receptor knockout mice (DRD1a-905781) were obtained from The Jackson Laboratories (Bar Harbor, ME). Animals were housed on a 12-h light/dark cycle with free access to food and water and allowed to acclimate for at least 5 d after arrival. Aseptic technique was used during the surgical procedure in order to prevent infection. On the day of the procedure animals were anesthetized with isoflurane (4%) and their heads shaved. The animals were then placed into a Kopf stereotaxic frame, the surgical area disinfected by swabbing with Provodine solution, and the area isolated with a sterile surgical drape. Anesthesia was maintained with isoflurane (2.5%–3%) delivered through a nose cone using a Univentor 400 anesthesia unit. Animals were given a 0.1 ml subcutaneous (s.c.) injection of Metacam (NSAID, meloxicam, 5 mg/ml, Boehringer Ingelheim) as a post-operative analgesic. Marcaine (bupivacaine, 0.5%, Hospira, Lake Forest, IL), a long acting local anesthetic, was administered s.c. at the surgical area to minimize pain and discomfort. […]
For conventional analysis, ACh was analyzed by high performance liquid chromatography (HPLC) utilizing a modification of the BAS ACh-choline assay kit (BAS part # MF-8910). […]

The text below walks through data of article PMC7358525, “Characterization of PF-6142, a Novel, Non-Catecholamine Dopamine Receptor D1 Agonist, in Murine and Nonhuman Primate Models of Dopaminergic Activation” (Frontiers in Pharmacology, 2020).

For the compound `Cc1cc(Oc2nccc3occc23)ccc1-c1c(C)ncc2nccn12` [PF-6142], in test [1], the “decrease of time spent in slow-wave sleep relative to vehicle” value is listed as 88.1%; the “difference in fraction of REM sleep, vehicle vs high dose group” value is given as 88.2%; the “increase of time spent awake” value is given as 246.9%. Besides, the “PF-6142 mediated increase in cortical ACh after repeated dosing (AUC 75-180 min, day 5)” value in test [2] (10 mg/kg SC for five consecutive days) is on record as “maintained”. In test [2] (PF-6142 10 mg/kg SC acute on day 5 after subchronic vehicle, vs 5 d vehicle), the “cortical ACh levels, time course” value is given as “increased cortical ACh levels”.
